Test results as given in patent publication US8729096B2, “Imidazolidine-2,4-dione derivatives as N-formyl peptide receptor 2 modulators” (Allergan, Inc., priority 2012, dated 2014).
pEC50: −log10 of the molar value.

Biological target: T1, FPR2 (Homo sapiens, UniProt P25090)
T1 construct: expressed in transfected cells
T1 sequence (P25090 1-351): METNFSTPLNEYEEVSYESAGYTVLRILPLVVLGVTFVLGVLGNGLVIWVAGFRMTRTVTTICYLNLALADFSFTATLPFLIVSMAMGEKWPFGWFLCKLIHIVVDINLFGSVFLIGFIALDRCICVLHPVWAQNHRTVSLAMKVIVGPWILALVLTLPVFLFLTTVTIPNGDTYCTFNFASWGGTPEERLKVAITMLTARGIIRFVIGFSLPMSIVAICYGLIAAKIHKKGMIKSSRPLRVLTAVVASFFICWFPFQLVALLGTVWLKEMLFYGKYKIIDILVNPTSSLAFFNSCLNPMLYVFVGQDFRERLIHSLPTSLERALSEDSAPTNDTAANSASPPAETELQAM
Experiment: FLIPR Tetra compound-induced calcium activity in CHO-Ga16 cells stably expressing FPR2
Format: cell-based
Conditions: calcium activity on FLIPR Tetra; for Efficacy (fraction): efficacy given as a fraction; for pEC50: tested at 0.61 to 10,000 nM
Protocol: CHO-Ga16 cells stably expressing FPR2 were cultured in (F12, 10% FBS, 1% PSA, 400 μg/ml geneticin and 50 μg/ml hygromycin) and HEK-Gqi5 cells stable expressing FPR2 were cultured in (DMEM high glucose, 10% FBS, 1% PSA, 400 μg/ml geneticin and 50 μg/ml hygromycin). In general, the day before the experiment, 18,000 cells/well were placed in a 384-well clear bottom poly-d-lysine coated plate. The following day the screening compound-induced calcium activity was assayed on the FLIPR^Tetra. The drug plates were prepared in 384-well microplates using the EP3 and the MultiPROBE robotic liquid handling systems. Compounds were tested at concentrations ranging from 0.61 to 10,000 nM. Results are expressed as EC50 (nM) and efficacy values.

Row | Compound | Efficacy (fraction) | pEC50
1 | O=C(CN1C(=O)C2CCCN2C1=O)Nc1ccc(Br)cc1 (stereo not shown) [Compound 2, N-(4-bromophenyl)-2-(1,3-dioxotetrahydro-1H-pyrrolo[1,2-c]imidazol-2(3H)-yl)acetamide] | (0.93) | 6.46
2 | O=C(CN1C(=O)NC2(CCC2)C1=O)Nc1ccc(Br)cc1 [Compound 6, N-(4-Bromophenyl)-2-(6,8-dioxo-5,7-diazaspiro[3.4]octan-7-yl)acetamide] | (1.00) | 6.19
3 | O=C(CN1C(=O)C2CCCCN2C1=O)Nc1ccc(Br)cc1 (stereo not shown) [Compound 3, N-(4-bromophenyl)-2-(1,3-dioxohexahydroimidazo[1,5-a]pyridin-2(3H)-yl)acetamide] | (1.0) | 6.61
4 | CCC1(C(C)C)NC(=O)N(CC(=O)Nc2ccc(Br)cc2)C1=O (stereo not shown) [Compound 1, N-(4-bromophenyl)-2-(4-ethyl-4-isopropyl-2,5-dioxoimidazolidin-1-yl)acetamide] | (0.99) | 7.25
5 | COCC1(C)NC(=O)N(CC(=O)Nc2ccc(Br)cc2)C1=O (stereo not shown) [Compound 5] | (1.00) | 6.51
